Read-outs that look alike come from different tables or passages of the source. Blank lines part the entries; values can stand above or below the molecule they belong to.
Legend:
LAT-1 = biological target: T1, LAT-1 (Homo sapiens, UniProt Q01650); experiment: LAT-1 mediated competition studies, boron uptake in FaDu cells; format: cell-based; settings: HBSS, 2 hours, 37° C.
T1 construct: host or cells: FaDu human nasopharyngeal carcinoma cells
Description: (§1) The FaDu cell line is a human nasopharyngeal carcinoma cell line. The cell line was obtained from the American Type Culture Collection (“ATCC”), located at 10801 University Boulevard Manassas, VA 20110-2209 USA in 2019. It has ATCC designation of HTB-43™ and lot number 70014320. FaDu cells are propagated in DMEM culture medium supplemented with 10% fetal bovine serum with routine passage by trypsinization and reseeding. The cell line is cryopreserved in liquid nitrogen.
(§2) Additionally, boron measurement was performed by ICP OES. on an Agilent 5110 ICP-OES. The data was analyzed using Agilent's ICP Expert Software, version 7.4.2.10790. Boron was measured axially at the 249.772 nm wavelength and the internal standard Beryllium was measured axially at the 313.042 nm wavelength. Beryllium internal standard was spiked into the solution at 1:5 the flowrate before introduction to the spray chamber via a T-connector. Finally, A standard curve using 1000, 100, 10, 1 and 0 ppb of boron was used to calculate the concentration of boron in each sample.
It has been shown that the system L transporter (LAT-1) mediates the transport of L-amino acids into cells and plays a major role in the uptake of BPA in BPA-based BNCT (WONGTHAI, et. al. Cancer Sci Vol. 106, pg. 279-286, 2015). To assess whether TLS00192 is transported via LAT-1 dependent mechanism we interrogated its ability to be outcompeted by the LAT1 substrate L-Phe FaDu cells were incubated in HBSS medium for two (2) hours at 37° C. with 0.5 mM of either TLS00192 or BPA-fructose in the absence (Subset A) or presence of increasing concentrations of competitor Phe (Subset B), L-system antagonist BCH (Subset C) or LAT-1 specific inhibitor JPH203 (Subset D). The cells were harvested, and the amount of each boronated cell associated compound was determined by ICP OES. The IC50s for the respective inhibitor on each compound is also indicated. BPA was used as a positive control for LAT-1-mediated uptake.

FaDu cells [1] = experiment: Cellular retention of TLS00192 and BPA-fructose in FaDu cells; format: cell-based, human; settings: sixteen (16) hours after initial 2 hour incubation
Description: as §1, §2
Subsequently, to determine whether the efflux mediated by either LAT1 or LAT2 or other transporters is equal for BPA-fructose relative to TLS00192 in cellular retention tests in FaDu cells. […] Data is expressed as % residual boron content of time zero amount.

FaDu cells [2] = experiment: Cellular retention of TLS00190, TLS00178 and BPA-Fructose in FaDu cells; format: cell-based, human
Experimental: Subsequently, to determine whether the efflux mediated by either LAT1 or LAT2 or other transporters is equal for BPA-fructose relative to TLS00192 in cellular retention tests in FaDu cells. The “time zero” sample was immediately harvested following an initial two (2) hour incubation with the compounds. Cells were then harvested at indicated times and subjected to lysis, boron measurement, and protein content. Data is expressed as % residual boron content of time zero amount. In addition, the retention of TLS00190 and TLS00178 following initial 2 hour uptake compared to BPA-Fructose was also studied in FaDu cells.

FaDu cells [3] = experiment: Boron uptake of TLS00190 and TLS00178 in FaDu cells; format: cell-based, human; settings: two (2) hour incubation
Description: as §1
as §2, with “Finally, A standard curve using 1000, 100, 10, 1 and 0 ppb of boron was used to calculate the concentration of boron in each sample.” left out
The efficiency of boron uptake of TLS00190 and TLS00178 was determined using FaDu cells. Following a two (2) hour incubation, cells were harvested and suspended in ice cold PBS and a portion was lysed in RIPA buffer and protein content determined by BCA assay. […] After two (2) hours of incubation the amount of the compounds taken up was determined based on the boron measurements.

[4] = test system: FaDu nasopharnygeal squamous carcinoma cells; experiment: Kinetic parameters of boron uptake in FaDu cells (ICP-OES); format: cell-based, human; settings: Michaelis-Menton non-linear regression
Description: To investigate the ability of TLS00192 to deliver boron to FaDu nasopharnygeal squamous carcinoma cells, we interrogated a range of concentrations bracketing what is hypothsized to be physiologically relevant amounts for boronophenylalanine (BPA), currently the most widely studied boron drug in BNCT clinical practice.
The FaDu cell line is a human nasopharyngeal carcinoma cell line. The cell line was obtained from the American Type Culture Collection (“ATCC”), located at 10801 University Boulevard Manassas, VA 20110-2209 USA in 2019. It has ATCC designation of HTB-43™ and lot number 70014320. […]
Additionally, boron measurement was performed by ICP OES. on an Agilent 5110 ICP-OES. The data was analyzed using Agilent's ICP Expert Software, version 7.4.2.10790. Boron was measured axially at the 249.772 nm wavelength and the internal standard Beryllium was measured axially at the 313.042 nm wavelength. […]
To determine the kinetic parameters of TLS00192, Boron compounds were added to FaDu cells at the final concentration of 2.5 mM in HBSS and the cells were incubated at 37° C., in a humidified 5% CO2 atmosphere for two (2) hrs with shaking. Following two (2) hour incubation, cells were harvested and suspended in ice cold PBS and lysed in RIPA buffer and protein content determined by BCA assay. […] Results were expressed as ng boron/per mg cell protein/per minute. […]

intracranial tumor = settings: BNCT with beam directed to surgically exposed intracranial tumor; cited from earlier work
[5] = 0.5 mM BPA-fructose as substrate, read-out: IC50 of competitor on boron uptake of BPA-Fructose
[6] = 0.5 mM TLS00192 as substrate, read-out: IC50 of competitor on boron uptake of TLS00192
[7] = twenty (20) hrs after initial 2 hour uptake

T1 sequence (Q01650 whole entry): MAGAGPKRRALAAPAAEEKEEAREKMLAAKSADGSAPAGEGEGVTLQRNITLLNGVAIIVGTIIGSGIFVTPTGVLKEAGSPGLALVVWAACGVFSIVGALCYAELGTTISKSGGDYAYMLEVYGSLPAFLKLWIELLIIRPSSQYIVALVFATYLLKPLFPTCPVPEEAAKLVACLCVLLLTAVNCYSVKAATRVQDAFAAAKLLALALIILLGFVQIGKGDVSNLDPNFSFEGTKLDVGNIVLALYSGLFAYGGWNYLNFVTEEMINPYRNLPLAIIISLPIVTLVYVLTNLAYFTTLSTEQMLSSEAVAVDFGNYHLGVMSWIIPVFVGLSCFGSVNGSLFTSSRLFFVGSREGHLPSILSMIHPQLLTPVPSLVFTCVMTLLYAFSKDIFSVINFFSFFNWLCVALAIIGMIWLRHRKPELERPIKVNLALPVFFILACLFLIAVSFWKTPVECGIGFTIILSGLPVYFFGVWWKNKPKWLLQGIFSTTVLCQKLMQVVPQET
T1 sequence (P08195 102-630 partner): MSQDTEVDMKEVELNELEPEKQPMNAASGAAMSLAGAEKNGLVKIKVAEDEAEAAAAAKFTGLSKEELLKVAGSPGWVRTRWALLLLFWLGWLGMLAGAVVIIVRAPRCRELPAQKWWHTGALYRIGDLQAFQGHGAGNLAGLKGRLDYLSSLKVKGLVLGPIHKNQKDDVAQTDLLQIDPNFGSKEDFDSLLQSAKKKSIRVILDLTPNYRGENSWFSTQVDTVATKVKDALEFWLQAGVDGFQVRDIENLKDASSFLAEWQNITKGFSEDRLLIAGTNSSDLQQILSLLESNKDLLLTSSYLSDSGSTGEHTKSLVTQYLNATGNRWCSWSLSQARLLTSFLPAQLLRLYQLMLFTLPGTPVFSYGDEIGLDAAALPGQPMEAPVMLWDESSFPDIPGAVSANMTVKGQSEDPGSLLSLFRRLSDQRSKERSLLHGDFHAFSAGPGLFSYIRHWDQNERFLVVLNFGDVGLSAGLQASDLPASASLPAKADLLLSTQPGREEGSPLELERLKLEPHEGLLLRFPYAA

IC50 (LAT-1; [5]): 140 µM
IC50 (LAT-1; [6]): 800 µM
Molecule: NC1(C(=O)O)CC2CCC1C2 (stereo not shown) [BCH, 2-aminobicyclo-(2,2,1)-heptane-2-carboxylic acid]

Molecule: N[C@@H](Cc1ccc(B(O)O)cc1)C(=O)O [BPA, 4-Borono-L-phenylalanine]
% residual boron content of time zero amount (FaDu cells [1]): approximately 10%

IC50 (LAT-1; 0.5 mM BPA-fructose as substrate, read-out: IC50 of inhibitor on LAT1-mediated uptake of BPA): 0.78 µM
IC50 (LAT-1; 0.5 mM TLS00192 as substrate, read-out: IC50 of inhibitor on LAT1-mediated uptake of TLS00192): 0.19 µM
Molecule: Nc1cc(COc2c(Cl)cc(C[C@H](N)C(=O)O)cc2Cl)c2oc(-c3ccccc3)nc2c1 [JPH203]

IC50 (LAT-1; [5]): 40 µM
IC50 (LAT-1; [6]): 430 µM
Molecule: N[C@@H](Cc1ccccc1)C(=O)O [L-Phe, phenylalanine]

Molecule: CNC(=O)[C@@H](N)Cc1c[nH]cn1 [TLS00178]
retention, cellular level remaining (FaDu cells [2]; [7]): 57%
boron uptake (ng boron per mg protein), result in words (FaDu cells [3]): retain the ability to be transported into FaDu cancer cells

Molecule: COCCOCCOc1ccc(C[C@H](N)C(=O)O)cc1 [TLS00190]
retention, cellular level remaining (FaDu cells [2]; [7]): 43%
retention, cellular level remaining (FaDu cells [2]; two (2) hours after initial 2 hour uptake): 14%
boron uptake (ng boron per mg protein), result in words (FaDu cells [3]): retain the ability to be transported into FaDu cancer cells

Molecule: N[C@@H](Cc1ccc(O)c(B(O)O)c1)C(=O)O [TLS00192]
% residual boron content of time zero amount (FaDu cells [1]): greater than 40%
Km ([4]; 2 hr incubation in HBSS at 37° C.): 1970 µM
apparent Vmax ([4]; 2 hr incubation): 15.87 ng boron mg^−1 min^−1

Molecule: undecahydrododecaborane thiol [BSH]
5-year survival rate (intracranial tumor): 58%
